# Source: patent US12653830B2, “Substituted imidazoquinoxaline compounds and uses thereof” (Impact Therapeutics (Shanghai), Inc, priority 2019, dated 2026)
# pIC50: −log10 of the molar value. Like-named read-outs stand apart in the source and are kept apart here.
# Legend:
# [1] = target: T1, ATM kinase (Homo sapiens, UniProt Q13315); experiment: In vitro ATM kinase assay (Cisbio HTRF, p53 substrate); assay type: biochemical; conditions: 30 μM ATP; for inhibition at 0.0001 µM: Conc. 0.1 nM; for inhibition at 0.0001 µM / inhibition at 0.001 µM / inhibition at 0.01 µM: read-out: Inh % (inhibitory effect on ATM kinase activity); for inhibition at 0.001 µM: Conc. 1 nM; for inhibition at 0.01 µM: Conc. 10 nM
# T1 construct: purchased Eurofins 14-933
# T1 sequence (Q13315 whole entry): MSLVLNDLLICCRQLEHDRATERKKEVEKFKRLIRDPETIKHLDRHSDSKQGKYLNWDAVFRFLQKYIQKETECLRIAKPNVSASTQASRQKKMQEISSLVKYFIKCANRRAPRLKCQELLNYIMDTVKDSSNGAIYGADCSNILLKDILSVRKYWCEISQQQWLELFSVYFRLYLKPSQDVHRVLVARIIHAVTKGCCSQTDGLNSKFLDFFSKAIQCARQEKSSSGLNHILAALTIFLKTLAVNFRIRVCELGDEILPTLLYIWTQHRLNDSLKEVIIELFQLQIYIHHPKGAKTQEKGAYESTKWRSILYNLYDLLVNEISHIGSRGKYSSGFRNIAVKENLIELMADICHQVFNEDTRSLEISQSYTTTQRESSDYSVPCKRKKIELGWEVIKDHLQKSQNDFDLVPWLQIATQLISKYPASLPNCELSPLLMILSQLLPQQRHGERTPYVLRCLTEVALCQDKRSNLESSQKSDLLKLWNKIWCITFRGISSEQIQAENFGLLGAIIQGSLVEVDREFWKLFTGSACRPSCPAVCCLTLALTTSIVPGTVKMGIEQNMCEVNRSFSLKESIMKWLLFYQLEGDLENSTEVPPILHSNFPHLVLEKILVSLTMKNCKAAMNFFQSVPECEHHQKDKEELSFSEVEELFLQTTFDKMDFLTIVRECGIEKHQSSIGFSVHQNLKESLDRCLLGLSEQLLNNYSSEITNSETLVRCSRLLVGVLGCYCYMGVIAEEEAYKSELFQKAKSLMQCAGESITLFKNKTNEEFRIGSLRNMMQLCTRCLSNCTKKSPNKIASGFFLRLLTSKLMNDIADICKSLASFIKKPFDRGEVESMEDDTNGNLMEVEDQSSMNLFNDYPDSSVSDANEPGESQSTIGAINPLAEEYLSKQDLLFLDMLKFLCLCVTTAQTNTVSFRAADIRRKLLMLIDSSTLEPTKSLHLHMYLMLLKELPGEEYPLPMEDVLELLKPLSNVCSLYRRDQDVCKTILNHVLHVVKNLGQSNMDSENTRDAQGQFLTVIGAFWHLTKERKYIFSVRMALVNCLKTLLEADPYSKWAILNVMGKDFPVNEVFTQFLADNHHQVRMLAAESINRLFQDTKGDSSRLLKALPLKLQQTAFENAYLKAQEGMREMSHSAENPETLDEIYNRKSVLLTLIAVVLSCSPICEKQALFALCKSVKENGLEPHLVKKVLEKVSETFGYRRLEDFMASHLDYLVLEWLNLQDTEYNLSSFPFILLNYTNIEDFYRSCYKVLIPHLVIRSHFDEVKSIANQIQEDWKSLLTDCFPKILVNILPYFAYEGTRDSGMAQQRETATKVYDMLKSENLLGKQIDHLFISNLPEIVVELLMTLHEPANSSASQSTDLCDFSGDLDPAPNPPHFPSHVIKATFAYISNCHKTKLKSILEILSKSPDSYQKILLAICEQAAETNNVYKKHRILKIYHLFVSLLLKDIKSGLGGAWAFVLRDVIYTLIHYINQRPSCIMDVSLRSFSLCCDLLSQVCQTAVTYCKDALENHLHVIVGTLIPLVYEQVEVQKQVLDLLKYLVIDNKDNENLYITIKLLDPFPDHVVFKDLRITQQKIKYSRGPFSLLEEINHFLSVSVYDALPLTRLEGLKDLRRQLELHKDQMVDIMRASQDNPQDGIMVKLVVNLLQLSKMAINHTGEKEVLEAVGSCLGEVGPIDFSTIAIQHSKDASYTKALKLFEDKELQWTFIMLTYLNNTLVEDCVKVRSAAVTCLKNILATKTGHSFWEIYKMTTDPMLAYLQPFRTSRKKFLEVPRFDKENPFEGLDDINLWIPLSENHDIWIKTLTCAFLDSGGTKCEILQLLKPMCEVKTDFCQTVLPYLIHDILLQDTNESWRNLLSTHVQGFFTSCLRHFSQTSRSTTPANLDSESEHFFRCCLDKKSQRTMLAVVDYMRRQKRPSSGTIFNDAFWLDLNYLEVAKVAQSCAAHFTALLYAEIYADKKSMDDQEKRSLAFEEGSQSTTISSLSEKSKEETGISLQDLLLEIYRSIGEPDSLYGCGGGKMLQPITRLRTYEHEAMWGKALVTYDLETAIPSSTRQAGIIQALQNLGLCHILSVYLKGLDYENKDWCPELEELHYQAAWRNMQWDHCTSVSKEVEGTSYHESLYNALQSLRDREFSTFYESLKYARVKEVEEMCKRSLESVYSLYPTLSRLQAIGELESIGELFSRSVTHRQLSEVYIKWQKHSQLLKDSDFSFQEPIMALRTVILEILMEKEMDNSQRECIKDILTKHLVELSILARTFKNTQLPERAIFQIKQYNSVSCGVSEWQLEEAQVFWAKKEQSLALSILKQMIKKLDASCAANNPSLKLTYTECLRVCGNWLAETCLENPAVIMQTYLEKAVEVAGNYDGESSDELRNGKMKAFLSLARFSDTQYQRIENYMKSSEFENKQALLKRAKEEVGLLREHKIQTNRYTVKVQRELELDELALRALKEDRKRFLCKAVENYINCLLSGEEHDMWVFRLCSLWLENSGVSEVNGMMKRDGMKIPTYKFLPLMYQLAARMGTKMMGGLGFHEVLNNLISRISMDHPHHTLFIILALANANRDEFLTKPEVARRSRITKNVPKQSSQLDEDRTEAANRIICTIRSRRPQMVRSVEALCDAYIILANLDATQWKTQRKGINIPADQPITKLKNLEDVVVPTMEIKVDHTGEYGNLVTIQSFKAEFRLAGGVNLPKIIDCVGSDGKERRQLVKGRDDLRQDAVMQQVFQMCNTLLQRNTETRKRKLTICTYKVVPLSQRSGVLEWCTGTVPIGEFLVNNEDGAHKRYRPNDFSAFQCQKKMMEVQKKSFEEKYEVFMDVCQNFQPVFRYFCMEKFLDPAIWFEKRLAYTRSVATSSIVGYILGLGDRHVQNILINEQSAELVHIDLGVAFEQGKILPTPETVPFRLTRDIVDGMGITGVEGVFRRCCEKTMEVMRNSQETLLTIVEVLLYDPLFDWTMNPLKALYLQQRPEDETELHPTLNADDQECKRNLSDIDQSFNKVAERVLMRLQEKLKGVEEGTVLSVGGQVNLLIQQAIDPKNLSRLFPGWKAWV
# Procedure: Determination of the Inhibitory Effect In Vitro of the Compound of Example 2 and its Analogues on ATM Using In Vitro ATM Kinase Assay
# ATM enzymatic activity was measured using Cisbio's HTRF reagent in a 384-well plate (Greiner, #784075). […] The mixtures were centrifuged at 1000 rpm for 1 minute, and reacted in dark for 30 minutes at room temperature. Then, 5 μL of EDTA termination solution (250 mm) was added to terminate the reaction. After 5 μL of detection mixture (Anti-phospho-p53 (ser15)-K (Cisbio, #61P08KAE, 0.084 ng/μL) and Anti-GST-d2 (Cisbio, #61GSTDLA, 5.00 ng/μL)) was finally added to each well, the mixtures were cultured at room temperature over night, and the fluorescence values at 665 nm and 615 nm were measured on Envision 2104. The final concentration of each reagent of the experiment was as follows: 12.5 mM HEPES (pH8.0), 0.5% glycerol, 0.005% Brij-35, 0.625 mM DTT, 0.0125% BSA, 15 nM p53, 0.25 ng/μL ATM, 30 μM ATP, 2.5 mM Mg(AcO)2, 2.5 mM MnCl2, 62.5 mM EDTA, 0.021 ng/μL Anti-phospho-p53, 1.25 ng/μL Anti-GST-d2.
# Relative fluorescence ratio was calculated: Ratio665 nm/615 nm−Ratiobackground, and inhibition rate %=(1−(relative fluorescence ratio of test compound well−relative fluorescence ratio of positive control well)/(relative fluorescence ratio of negative control well−relative fluorescence ratio of positive control well))×100 was calculated. Data were analyzed using GraphPad Prism6.0 and fitted using the curve equation: Y=Bottom+(Top−Bottom)/(1+10^((Log IC50−X)*HillSlope)), and IC50 values were calculated.
# [2] = system: human breast cancer cell MDA-MB-468; experiment: MTT proliferation assay, MDA-MB-468; assay type: cell-based; conditions: Homo sapiens, MDA-MB-468, 168 h, 7 days, single agent, read-out: IC50, inhibition of proliferation of MDA-MB-468
# Procedure: Determination of the Inhibitory Effect of the Compound of Example 2 and its Analogues on the Proliferation of Human Breast Cancer Cell MDA-MB-468 Using MTT Assay
# The human breast cancer cells MDA-MB-468 were cultured in RPMI 1640 medium with 10% FBS and used at 90% confluence. The MDA-IVB-468 cells were digested with trypsinase and centrifuged at 800 rpm for 5 minutes. The supernatant was discarded and the cell pellets were resuspended with fresh medium and counted. Cells were seeded to 96-well cell culture plates with appropriate cell density and incubated overnight at 37° C., 5% CO2. […] 5 μL of solutions of each concentration was added to 120 μL of medium (diluted by 25 times) and mixed by shaking. The culture medium of cells cultured overnight was discarded and replaced with 195 μL/well of fresh medium (RPMI 1640+5% FBS) and 5 μL/well of diluted medium containing the test compound of corresponding concentrations (the final concentration of DMSO was 1%), and the culture plate was then returned to 5% CO2 incubator at 37° C. for 7 days (on the fourth day, dressing was changed once and culture was continued). On the day of experiment, culture medium was discarded and replaced with 100 μL/well of fresh serum-free DMEM medium containing MTT (0.5 mg/mL), and the culture was continued. After 4 hours, medium was discarded and replaced with 100 μL/well of DMSO, the plates were shaken for 10 minutes in darkness and the absorbance was measured at the wavelengths of 552 and 693 nm using a multi-function plate reader. Graph Pad Prism 6.0 was used to analyze the data. The inhibitory effects of compounds on cell proliferation were plotted based on cell viability vs. the logarithm of compound concentration. Cell viability %=(ODcompound−ODbackground)/(ODDMSO−ODbackground)×100.
# Table 4 summarizes the inhibitory effect data (IC50) of some compounds on the proliferation of human breast cancer cell MDA-MB-468.
# [3] = system: human colon cancer cell SW620; experiment: MTT proliferation assay in combination with CPT-11, SW620; assay type: cell-based; conditions: medium containing 205 nM CPT-11, 5 days, read-out: IC50, inhibition of proliferation of SW620 combined with CPT-11
# Procedure: Determination of the Inhibitory Effect of the Compound of Example 2 and its Analogues in Combination with CPT-11 on the Proliferation of Human Colon Cancer Cell SW620 Using MTT Assay
# The human colon cancer cells SW620 were cultured in RPMI 1640 medium with 10% FBS and used at about 90% confluence for experiments. The SW620 cells were digested with trypsinase and centrifuged at 800 rpm for 5 minutes. The supernatant was discarded and the cell pellets were resuspended with fresh medium (RPMI 1640+10% FBS). The cells were seeded into 96-well cell culture plates with appropriate cell density and incubated at 37° C. overnight in a 5% CO2 incubator. […] The first concentration was 1 μM or 0.333 μM, the last concentration was DMSO negative control (0 μM). 5 μL of solutions of each concentration was added to 120 μL of medium (a 25 times dilution) and mixed by shaking. The cells were cultured overnight and the culture medium was replaced with 195 μL/well of fresh medium containing 205 nM CPT-11 and 5 μL/well of medium containing the test compound (the final concentration of DMSO was 1%). The culture plates were returned to incubator and cultured at 37° C., 5% CO2 for 5 days. At the day of experiment, medium was discarded and replaced with 100 μL of fresh serum-free DMEM medium containing MTT (0.5 mg/mL), and the culture was continued. 4 hours later, the medium was discarded and replaced with 100 μL/well of DMSO, the plate was shaken for 10 minutes in dark and the absorbance was measured at the wavelengths of 552 and 690 nm using a multi-function plate reader. Data were analyzed by Graph Pad Prism 6.0. The inhibitory effects of compounds on cell proliferation were plotted based on cell viability vs. the logarithm of compound concentration. Cell viability %=(ODcompound−ODbackground)/(ODDMSO−ODbackground)×100.
# Table 3 summarizes the inhibitory effect data (IC50) of some compounds combined with CPT-11 on the proliferation of human colon cancer cell SW620.
SMILES,inhibition at 0.0001 µM [1],inhibition at 0.001 µM [1],inhibition at 0.01 µM [1],pIC50 [2],pIC50 [3],pIC50 [1],"pIC50 ([3]; Homo sapiens, SW-620, 120 h)"
"Cc1nc(C(C)C)n2c1cnc1ccc(-c3ccc(OCCCN4CCCCC4)nc3)cc12 [Example 22, 1-isopropyl-3-methyl-8-(6-(3-(piperidin-1-yl)propoxy)pyridin-3yl)imidazo[1,5-a]quinoxaline]",31%,94%,100%,8.00,7.79,–,–
"Cc1nc(C(C)C)n2c1cnc1ccc(-c3ccc(N4CCC(N(C)C)CC4)c(F)c3)cc12 [Example 24, N,N-dimethyl-1-(2-fluoro-4-(1-isopropyl-3-methylimidazo[1,5-a]quinoxalin-8-yl)phenyl)piperidin-4-amine]",30%,84%,98%,7.96,7.68,–,–
"Cc1nc(C(C)C)n2c1cnc1ccc(-c3ccc(N4CCC(N(C)C)CC4)c(Cl)c3)cc12 [Example 25, N,N-dimethyl-1-(2-chloro-4-(1-isopropyl-3-methylimidazo[1,5-a]quinoxalin-8-yl)phenyl)piperidin-4-amine]",–,69%,–,7.13,7.18,–,–
"Cc1nc(C(C)C)n2c1cnc1ccc(-c3ccc(N4CCC(N(C)C)CC4)c(C(F)(F)F)c3)cc12 [Example 26, N,N-dimethyl-1-(4-(1-isopropyl-3-methylimidazo[1,5-a]quinoxalin-8-yl)-2-(trifluoromethyl)phenyl)piperidin-4-amine]",–,54%,–,7.31,7.29,–,–
"Cc1nc(N2C[C@@H](C)O[C@@H](C)C2)n2c1cnc1ccc(-c3ccc(OCCCN4CCC4)nc3)cc12 [Example 31, (2S,6R)-4-(8-(6-(3-(azetidin-1-yl)propoxy)pyridin-3-yl)-3-methylimidazo[1,5-a]quinoxalin-1-yl)-2,6-dimethylmorpholine]",–,–,–,8.04,–,9.21,8.00
"Cc1nc(N2C[C@@H](C)O[C@@H](C)C2)n2c1cnc1ccc(-c3ccc(OCCCN4CCCC4)nc3)cc12 [Example 32, (2S,6R)-2,6-dimethyl-4-(3-methyl-8-(6-(3-(pyrrolidin-1-yl)propoxy)pyridin-3-yl)imidazo[1,5-a]quinoxalin-1-yl)morpholine]",–,–,–,8.12,–,10.00,8.04
"Cc1nc(N2C[C@@H](C)O[C@@H](C)C2)n2c1cnc1ccc(-c3ccc(OCCCN4CCCCC4)nc3)cc12 [Example 33, (2S,6R)-2,6-dimethyl-4-(3-methyl-8-(6-(3-(piperidin-1-yl)propoxy)pyridin-3-yl)imidazo[1,5-a]quinoxalin-1-yl)morpholine]",28%,92%,100%,7.73,–,9.70,7.74
"Cc1nc(N2C[C@@H](C)O[C@@H](C)C2)n2c1cnc1ccc(-c3ccc(OCCN(C)C)nc3)cc12 [Example 36, 2-((5-(1-((2S,6R)-2,6-dimethylmorpholino)-3-methylimidazo[1,5-a]quinoxalin-8-yl)pyridin-2-yl)oxy)-N,N-dimethylethan-1-amine]",–,40%,–,7.23,7.14,–,–
Cc1nc(N2C[C@@H](C)O[C@@H](C)C2)n2c1cnc1ccc(-c3ccc(OCCCN(C)C)c(C(F)(F)F)c3)cc12 [Example 37],12%,66%,100%,7.60,7.75,–,–
"Cc1nc(N2C[C@@H](C)O[C@@H](C)C2)n2c1cnc1ccc(-c3ccc(N4CCC(N(C)C)CC4)nc3)cc12 [Example 38, 1-(5-(1-((2S,6R)-2,6-dimethylmorpholino)-3-methylimidazo[1,5-a]quinoxalin-8-yl)pyridin-2-yl)-N,N-dimethylpiperidin-4-amine]",–,–,–,8.16,–,9.70,8.06
"Cc1nc(N2C[C@@H](C)O[C@@H](C)C2)n2c1cnc1ccc(-c3ccc(N4CCC(N(C)C)CC4)c(F)c3)cc12 [Example 39, 1-(4-(1-((2S,6R)-2,6-dimethylmorpholino)-3-methylimidazo[1,5-a]quinoxalin-8-yl)-2-fluorophenyl)-N,N-dimethylpiperidin-4-amine]",–,–,–,8.13,–,9.70,8.14
"Cc1nc(N2C[C@@H](C)O[C@@H](C)C2)n2c1cnc1ccc(-c3ccc(N4CCC(N(C)C)CC4)c(Cl)c3)cc12 [Example 40, 1-(2-chloro-4-(1-((2S,6R)-2,6-dimethylmorpholino)-3-methylimidazo[1,5-a]quinoxalin-8-yl)phenyl)-N,N-dimethylpiperidin-4-amine]",–,–,–,8.19,–,9.70,8.09
"CCc1nc(N2C[C@@H](C)O[C@@H](C)C2)n2c1cnc1ccc(-c3ccc(OCCCN(C)C)nc3)cc12 [Example 41, 3-((5-(1-((2S,6R)-2,6-dimethylmorpholino)-3-ethylimidazo[1,5-a]quinoxalin-8-yl)pyridin-2-yl)oxy)-N,N-dimethylpropan-1-amine]",–,–,–,7.37,–,9.82,7.27
"C[C@@H]1CN(c2ncc3cnc4ccc(-c5ccc(OCCCN(C)C)nc5)cc4n23)C[C@H](C)O1 [Example 43, 3-((5-(1-((2S,6R)-2,6-dimethylmorpholino)imidazo[1,5-a]quinoxalin-8-yl)pyridin-2-yl)oxy)-N,N-dimethylpropan-1-amine]",–,–,–,7.78,–,9.39,7.75
"Cc1nc(N2C[C@@H](C)O[C@@H](C)C2)n2c1cnc1ccc(-c3ccc(NCCCN(C)C)nc3)cc12 [Example 46, N^1-(5-(1-((2S,6R)-2,6-dimethylmorpholino)-3-methylimidazo[1,5-a]quinoxalin-8-yl)pyridin-2-yl)-N^3,N^3-dimethylpropane-1,3-diamine]",–,–,–,7.40,–,9.74,7.33
